The results in this text go back to patent publication US20120004244A1, “Bis Aromatic Compounds for Use as LTC4 Synthase Inhibitors” (BIOLIPOX AB, priority 2009, published 2012).

Structures are written as SMILES.

For the test, the target named is T1, Recombinant human LTC4 synthase (Homo sapiens, UniProt Q16873).
T1 construct: made in house; host or cells: Pichia pastoris ('Piccia pastoralis' [sic])
T1 sequence (Q16873 1-150): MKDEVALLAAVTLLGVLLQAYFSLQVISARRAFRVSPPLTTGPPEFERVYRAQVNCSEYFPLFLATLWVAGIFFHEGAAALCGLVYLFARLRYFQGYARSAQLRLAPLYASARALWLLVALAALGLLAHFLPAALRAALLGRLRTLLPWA
The test is described as follows: LTC4 synthase in vitro assay (LTA4 to LTC4, HTRF detection). The class given is biochemical. As to the method: In the assay, LTC4 synthase catalyses the reaction where the substrate LTA4 is converted to LTC4. Recombinant human LTC4 synthase is expressed in Piccia pastoralis and the purified enzyme is dissolved in 25 mM tris-buffer pH 7.8 supplemented with 0.1 mM glutathione (GSH) and stored at −80° C. The assay is performed in phosphate buffered saline (PBS) pH 7.4 and 5 mM GSH in 384-well plates.
The following is added chronologically to each well:
1.48 μL LTC4 synthase in PBS with 5 mM GSH. The total protein concentration in this solution is 0.5 μg/mL. 2. 1 μL inhibitor in DMSO (final concentration 10 μM). 3. Incubation of the plate at room temperature for 10 min. 4. 1 μL LTA4 (final concentration 2.5 μM). 5. Incubation of the plate at room temperature for 5 min. 6. 10 μL of the incubation mixture is analysed using homogenous time resolved fluorescent (HTRF) detection.
For the compound `CN(c1ccc(Cl)cc1)c1ccc(C(=O)c2ccc(N3CCC(C(C)(C)C)CC3)c(C(=O)O)c2)nc1` [2:5, 2-(4-tert-Butylpiperidin-1-yl)-5-{5-[(4-chlorophenyl)(methyl)amino]picolinoyl}benzoic acid], the IC50 turned out to be 3000 nM.

Regarding `COc1ccc(CNc2ccc(C(=O)c3ccc(N(C)c4ccc(Cl)cc4)cn3)cc2C(=O)O)cc1` [2:6, 5-{5-[(4-Chlorophenyl)(methyl)amino]picolinoyl}-2-(4-methoxybenzylamino)benzoic acid], the IC50 came out at 151 nM.

`COc1cccc(CNc2ccc(C(=O)c3ccc(N(C)c4ccc(Cl)cc4)cn3)cc2C(=O)O)c1` [2:7, 5-{5-[(4-Chlorophenyl)(methyl)amino]picolinoyl}-2-(3-methoxybenzylamino)benzoic acid]: the IC50 is 133 nM.

Regarding `COc1ccccc1CNc1ccc(C(=O)c2ccc(N(C)c3ccc(Cl)cc3)cn2)cc1C(=O)O` [2:8, 5-{5-[(4-Chlorophenyl)(methyl)amino]picolinoyl}-2-(2-methoxybenzylamino)benzoic acid], the IC50 was 132 nM.

Turning to `CN(c1ccc(Cl)cc1)c1ccc(C(=O)c2ccc(NCc3cccnc3)c(C(=O)O)c2)nc1` [2:9, 5-{5-[(4-Chlorophenyl)(methyl)amino]picolinoyl}-2-[(3-pyridylmethyl)amino]benzoic acid], the IC50 is 466 nM.

Take `CN(c1ccc(Cl)cc1)c1ccc(C(=O)c2ccc(NCc3ccc(F)cc3)c(C(=O)O)c2)nc1` [2:10, 5-{5-[(4-Chlorophenyl)(methyl)amino]picolinoyl}-2-(4-fluorobenzylamino)benzoic acid]: the half-inhibitory concentration (IC50) amounted to 157 nM.

For `CN(c1ccc(Cl)cc1)c1ccc(C(=O)c2ccc(NCc3ccc(Cl)cc3Cl)c(C(=O)O)c2)nc1` [2:11, 5-{5-[(4-Chlorophenyl)(methyl)amino]picolinoyl}-2-(2,4-dichlorobenzylamino)benzoic acid], the IC50 is 88 nM.

Take `CN(c1ccc(Cl)cc1)c1ccc(C(=O)c2ccc(NCc3ccc4c(c3)OCO4)c(C(=O)O)c2)nc1` [2:12, 5-{5-[(4-Chlorophenyl)(methyl)amino]picolinoyl}-2-(3,4-methylenedioxybenzylamino)benzoic acid]: the IC50 was found to be 66 nM.

On to `COc1ccc(Nc2ccc(C(=O)c3ccc(N(C)c4ccc(Cl)cc4)cn3)cc2C(=O)O)cc1` [2:13, 5-{5-[(4-Chlorophenyl)(methyl)amino]picolinoyl}-2-(4-methoxyphenylamino)benzoic acid], for which the IC50 was 160 nM.

In the case of `COc1ccccc1Nc1ccc(C(=O)c2ccc(N(C)c3ccc(Cl)cc3)cn2)cc1C(=O)O` [2:14, 5-{5-[(4-Chlorophenyl)(methyl)amino]picolinoyl}-2-(2-methoxyphenylamino)benzoic acid], the IC50 was found to be 68 nM.

For the compound `CN(c1ccc(Cl)cc1)c1ccc(C(=O)c2ccc(NC3CCC(F)(F)CC3)c(C(=O)O)c2)nc1` [2:15, 5-{5-[(4-Chlorophenyl)(methyl)amino]picolinoyl}-2-(4,4-difluorocyclohexylamino)benzoic acid], the IC50 is 184 nM.

As for `CN(c1ccc(Cl)cc1)c1ccc(C(=O)c2ccc(NC3CCOCC3)c(C(=O)O)c2)nc1` [2:16, 5-{5-[(4-Chlorophenyl)(methyl)amino]picolinoyl}-2-(4-tetrahydropyranylamino)benzoic acid], the 50% inhibitory concentration (IC50) was found to be 333 nM.

For `CN(c1ccc(Cl)cc1)c1ccc(C(=O)c2ccc(Nc3ccc(C(O)(C(F)(F)F)C(F)(F)F)cc3)c(C(=O)O)c2)nc1` [2:17, 5-{5-[(4-Chlorophenyl)(methyl)amino]picolinoyl}-2-[4-(1,1,1,3,3,3-hexafluoro-2-hydroxy-2-propyl)phenylamino]benzoic acid], the IC50 came out at 138 nM.

With `CN(c1ccc(Cl)cc1)c1ccc(C(=O)c2ccc(Nc3cccc(S(C)(=O)=O)c3)c(C(=O)O)c2)nc1` [2:18, 5-{5-[(4-Chlorophenyl)(methyl)amino]picolinoyl}-2-(3-methylsulfonylphenyl-amino)benzoic acid], the IC50 is 188 nM.

What is called IC50 is the concentration at which inhibition is half-maximal.
